Data reported in patent US11591342B2, “Heterocyclic compound, application thereof and pharmaceutical composition comprising same” (SUZHOU SINOVENT PHARMACEUTICALS CO., LTD., priority 2018, dated 2023).

How the values were obtained:
LPA18:2 in mouse plasma = test: Inhibition of LPA in mouse plasma (plasma LPA18:2 assay, LC-MS/MS); format: biochemical, CD1 mice; settings: fresh CD1 mouse plasma, LPA18:2, 37° C. for 120 min
Method: Effect Example 2. Inhibition of LPA in Mouse Plasma by Compounds
20 mM stock solutions of the compounds were prepared with DMSO and then diluted to 1 mM, which was subjected to a serial 3-fold dilution to yield 10 working solutions.
Collection of Fresh Mouse Plasma:
CD1 mice were euthanized by CO2 inhalation. Approximately 1 mL of whole blood was taken by cardiac puncture, with EDTA-K2 for anticoagulation. The blood was centrifuged at 3220 g for 10 min at 4° C. for plasma collection.
Reactions were performed in a 96-well plate, and the samples were tested in duplicate. 1 μL of each working solution was added to 100 μL of plasma, with the final concentrations of […]. 1 μL of DMSO was added to plasma to serve as blank. The samples were incubated in a water bath at 37° C. for 120 min, and 600 μL of 10 μM tolbutamide in methanol was added to terminate the reaction. Tolbutamide also served as an internal standard. After 5 min of vortex mixing, the samples were centrifuged at 3220 g for 45 min at 4° C. to precipitate the protein. 100 μL of the supernatant was transferred to a new plate, diluted with water based on LC-MS response and peak shapes, mixed well and analyzed by LC-MS/MS.
LPA18:2 was quantified using peak area ratio (LPA18:2/internal standard), requiring no standard curve. For test compounds of different concentrations, LPA data was represented by a percentage decrease of LPA: 100-[((LPA peak area ratio of compound)/(LPA peak area ratio of control))×100]. IC50 was calculated using Graphpad Prism 6.0 software.

CYP3A4 = CYP3A4 (Homo sapiens (Human), UniProt P08684); test: Time-dependent inhibition of CYP3A4 (TDI assay, human liver microsomes); format: in vitro ADME; settings: for CYP3A4 TDI % @ 10 μM: human liver microsomes, Midazolam substrate, 30 min with NADPH vs 0 min
Method: Effect Example 3. Time-Dependent Inhibition of CYP3A4
1. Preheating potassium phosphate buffer (K-buffer), pH 7.4: 100 mM potassium phosphate buffer (K-buffer) was prepared by mixing 9.5 mL of solution A with 40.5 mL of solution B, diluting to 500 mL with ultrapure water, and then adjusting to pH 7.4 with KOH or H3PO4, wherein the solution A (1M potassium dihydrogenphosphate) was prepared by dissolving 136.5 g of potassium dihydrogenphosphate in […] of ultrapure water.
2. Preparation of human liver microsome suspension (1.3 mg/mL, 1.3×, stock: 20 mg/mL): 100 μL of human liver microsome suspension (20 mg/mL) was added into […] of K-buffer.
3. Preparation of NADPH solution (4.167 mg/mL, 5 mM): 8.3 mg of NADPH was added into 2 mL of buffer.
4. Preparation of substrate solution (1.5× final): 1.5 μL of 10 mM Midazolam was added to 998.5 μL of K-buffer to yield the substrate mixture.
5. Preparation of 100× test compound, reference and blank control solutions: 3 μL of 10 mM stock solution of test compound was added to 27 μL of ACN; 3 μL of positive control stock solution was added to 27 μL of ACN; and 3 μL of DMSO was added to 27 μL of ACN to serve as blank control.
6. Primary preheating system: An NADPH-free system for 0 min incubation: 78 μL of 1.3× human liver microsome solution (step 2) was mixed with 1 μL of the 100× stock solutions of positive control, test compound, or blank control (step 5); A system containing NADPH for 30 min incubation: 78 μL of 1.3× human liver microsome solution (step 2) was mixed with 1 μL of the 100× stock solutions of positive control, test compound, or blank control (step 5).
7. Secondary preheating system: 150 μL of the substrate solution prepared in step 4 was added into a deep well plate together with the NADPH solution from step 3
8. The samples were preheated for 10 min in a 37° C. water bath.
9. Reaction procedure: (1) reaction for 0 min: 21 μL of K-buffer was added to the primary preheating system and mixed well without incubation; 20 μL of the mixture was immediately transferred into the plate of the secondary preheating system; after mixing, the secondary system was incubated in a 37° C. water bath for 15 min, and 60 μL of the reaction mixture was added into 120 μL of acetonitrile containing internal standard to terminate the reaction; and (2) reaction for 30 min: 21 μL of NADPH was added into the primary preheating system for a 30-min incubation after mixing; 20 μL of the mixture was added into the secondary preheating system prior to mixing; the mixture was incubated in a 37° C. water bath for 15 min, and 60 μL of the reaction mixture was added into 120 μL of acetonitrile containing internal standard to terminate the reaction.
10. After termination, the samples were shaken on a shaker at 600 rpm for 10 min and centrifuged at 5594 g for 15 min prior to LC-MS/MS analysis.

Autotaxin (ATX) = Autotaxin (ATX) (Homo sapiens (Human), UniProt Q13822); test: ATX bioactivity assay (Amplex Red / choline oxidase / HRP fluorescence, LPC 16:0 substrate); format: biochemical; settings: 30 min room temperature
Method: Effect Example 1 Bioactivity Assay
Preparation and Treatment
Stock Solution Preparation
A 10 mM DMSO stock solution was formulated for each compound. A 30 mM DMSO stock solution was formulated for positive control HA130.
The DMSO stock solutions were stored at room temperature in a desiccator for a short period of time or at −20° C. for a long period of time.
All compounds were serially 3-fold diluted in DMSO from 10 μM to the 10th concentration.
A 1000× positive control (10 mM, HA130) and a 1000× negative control (100% DMSO) were prepared.
The plates were shaken for 5 min.
Preparation of 1× Reaction Buffer:
5× reaction buffer and cold water were mixed well in a volume ratio of 1:4.
Preparation of 20 U/mL Choline Oxidase Stock Solution:
1 tube of choline oxide in a kit was dissolved in 1× reaction buffer. The aliquots were frozen at −20° C.
Preparation of 200 U/mL Horseradish Peroxidase (HRP) Stock Solution:
1 tube of HRP in a kit was dissolved in 1 mL of 1× reaction buffer. The aliquots were frozen at −20° C.
Preparation of 20 mM Amplex® Red Reagent (for Detection) Stock Solution
Amplex Red reagent and DMSO were equilibrated at room temperature. 1 tube of Amplex Red reagent in a kit was dissolved in 200 μL of DMSO.
a) 2×ATX ([…]), 2×HRP ([…]), 2× choline oxidase (0.2 U/mL) were added to 1× reaction buffer.
b) 20 μL of the reaction mixture was added to the plate (PE, 6007270) (refer to step a).
c) 40 nL of diluent was added to the plate using Echo (refer to “Preparation”).
d) 2×LPC (16:0) (60 mM) and 2× Amplex® Red ([…]) were prepared using 1× reaction buffer.
e) 20 μL of the mixture was added to the plate (refer to step d).
f) The plate was shaken for 30 s and allowed to stand at room temperature for 30 min.
g) The plate was examined using Envision, and the procedure was as follows: Excitation at 530 nm; and Emission at 590 nm.
Formula for Calculating % Inhibition (Percent Inhibition Rate) as Follows:
FLU: Fluorescence (fluorescence reading)
FLUpositive: Average fluorescence value in positive control wells (10 μM HA130) in the plate.
FLUvehicle: Average fluorescence value in negative control wells (0.1% DMSO) in the plate.
Calculation of IC50 and Dose-Response Curve:
IC50 of the compounds was calculated via a non-linear regression line (dose-variable slope) fitted using % inhibition and log of compound concentration. The software used was Graphpad 5.0. Y=Bottom+(Top−Bottom)/(1+10^((Log IC50−X)×Hill Slope))
X: log of inhibitor concentration

Sequence of CYP3A4 (P08684 whole entry): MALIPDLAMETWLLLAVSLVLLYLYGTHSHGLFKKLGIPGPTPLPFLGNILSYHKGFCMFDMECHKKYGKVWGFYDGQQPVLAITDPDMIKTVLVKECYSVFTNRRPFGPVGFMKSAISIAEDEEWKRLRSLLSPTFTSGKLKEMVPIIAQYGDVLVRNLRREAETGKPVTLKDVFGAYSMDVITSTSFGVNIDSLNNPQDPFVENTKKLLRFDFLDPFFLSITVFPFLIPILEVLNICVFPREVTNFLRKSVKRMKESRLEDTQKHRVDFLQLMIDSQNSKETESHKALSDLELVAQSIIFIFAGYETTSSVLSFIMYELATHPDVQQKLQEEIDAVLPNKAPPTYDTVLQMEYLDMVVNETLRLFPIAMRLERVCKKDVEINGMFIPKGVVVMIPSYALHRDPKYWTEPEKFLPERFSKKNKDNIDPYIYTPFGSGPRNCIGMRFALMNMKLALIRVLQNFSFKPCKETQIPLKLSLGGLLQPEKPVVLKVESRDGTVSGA

SMILES | IC50 (LPA18:2 in mouse plasma) [nM] | CYP3A4 TDI % @ 10 μM (CYP3A4) [%] | time-dependent inhibition on CYP3A4 (conclusion) (CYP3A4; conclusion drawn from Table 3, 10 μM) | IC50 (Autotaxin (ATX)) [nM]
CCc1sc2ccc(N3CCN(CC(=O)N4CC(O)C4)CC3)nc2c1N(C)c1nc(-c2ccc(F)cc2)c(C#N)s1 [Compound S-0129, 2-((2-ethyl-5-(4-(2-(3-hydroxyazetidin-1-yl)-2-oxoethyl)piperazin-1-yl)thieno[3,2-b]pyridin-3-yl)(methyl)amino)-4-(4-fluorophenyl)thiazole-5-carbonitrile] | 268 | 14.42 | no time-dependent inhibition on CYP3A4 | 264
CCn1nc2c(C)cc(N3CCN(CC(=O)N4CC(O)C4)CC3)nc2c1N(CC(F)F)c1nc(-c2ccc(F)cc2)c(C#N)s1 [Compound S-0141, 2-((2,2-difluoroethyl)(2-ethyl-5-(4-(2-(3-hydroxyazetidin-1-yl)-2-oxoethyl)piperazin-1-yl)-7-methyl-2H-pyrazolo[4,3-b]pyridin-3-yl)amino)-4-(4-fluorophenyl)thiazole-5-carbonitrile] | 153 |  |  | 43
CCc1nc2ncc(N3CCN(CC(=O)N4CC(O)C4)CC3)cn2c1N(CC)c1nc(-c2ccc(F)cc2)c(C#N)s1 [Compound S-0058, 2-(ethyl(2-ethyl-6-(4-(2-(3-hydroxyazetidin-1-yl)-2-oxoethyl)piperazin-1-yl)imidazo[1,2-a]pyrimidin-3-yl)amino)-4-(4-fluorophenyl)thiazole-5-carbonitrile] | 373 |  |  | 40
CCN(c1nc(-c2ccc(F)cc2)c(C#N)s1)c1c2cc(N3CCN(CC(=O)N4CC(O)C4)CC3C(F)(F)F)cc(F)c2nn1CC (single isomer, unassigned) [Compound S-0134A, 2-(ethyl(2-ethyl-7-fluoro-5-(4-(2-(3-hydroxyazetidin-1-yl)-2-oxoethyl)-2-(trifluoromethyl)piperazin-1-yl)-2H-indazol-3-yl)amino)-4-(4-fluorophenyl)thiazole-5-carbonitrile] | 116 |  |  | 20
CCn1nc2c(F)cc(N3CCN(CC(=O)N4CC(O)C4)CC3C(F)(F)F)cc2c1N(C)c1nc(-c2ccc(F)cc2)c(C#N)s1 (single isomer, unassigned) [Compound S-0131B, 2-((2-ethyl-7-fluoro-5-(4-(2-(3-hydroxyazetidin-1-yl)-2-oxoethyl)-2-(trifluoromethyl)piperazin-1-yl)-2H-indazol-3-yl) (methyl)amino)-4-(4-fluorophenyl)thiazole-5-carbonitrile] | 91 |  |  | 36
CCN(c1nc(-c2ccc(F)cc2)c(C#N)s1)c1c2cc(N3CCN(CC(=O)N4CC(O)C4)[C@H](C(F)(F)F)C3)cc(F)c2nn1CC [Compound S-0135A, (S)-2-(ethyl(2-ethyl-7-fluoro-5-(4-(2-(3-hydroxyazetidin-1-yl)-2-oxoethyl)-3-(trifluoromethyl)piperazin-1-yl)-2H-indazol-3-yl)amino)-4-(4-fluorophenyl)thiazole-5-carbonitrile] | 442 |  |  | 132
CCc1nc2c(C)cc(N3CCN(CC(=O)N4CC(O)C4)CC3)cn2c1N(C)c1nc(-c2ccc(F)cc2)c(C#N)s1 [GLPG1690, reference compound] | 1060 | 21.57 |  | 
CCn1nc2c(F)cc(N3CCN(CC(=O)N4CC(O)C4)CC3C(F)(F)F)cc2c1N(C)c1nc(-c2ccc(F)cc2)c(C#N)s1 (single isomer, unassigned) [Compound S-0131A, 2-((2-ethyl-7-fluoro-5-(4-(2-(3-hydroxyazetidin-1-yl)-2-oxoethyl)-2-(trifluoromethyl)piperazin-1-yl)-2H-indazol-3-yl)(methyl)amino)-4-(4-fluorophenyl)thiazole-5-carbonitrile] | 236 |  |  | 47
CCn1nc2c(C)cc(N3CCN(CC(=O)N4CC(O)C4)CC3)nc2c1N(CCF)c1nc(-c2ccc(F)cc2)c(C#N)s1 [Compound S-0144, 2-((2-ethyl-5-(4-(2-(3-hydroxyazetidin-1-yl)-2-oxoethyl)piperazin-1-yl)-7-methyl-2H-pyrazolo[4,3-b]pyridin-3-yl)(2-fluoroethyl)amino)-4-(4-fluorophenyl)thiazole-5-carbonitrile] | 67 |  |  | 27
CCN(c1nc(-c2ccc(F)cc2)c(C#N)s1)c1c2cc(N3CCN(CC(=O)N4CC(O)C4)[C@@H](C(F)(F)F)C3)cc(F)c2nn1CC [Compound S-0135B, (R)-2-(ethyl (2-ethyl-7-fluoro-5-(4-(2-(3-hydroxyazetidin-1-yl)-2-oxoethyl)-3-(trifluoromethyl)piperazin-1-yl)-2H-indazol-3-yl)amino)-4-(4-fluorophenyl)thiazole-5-carbonitrile] | 167 |  |  | 
